# Tests used:
# [1] = target: T1, Voltage-dependent L-type calcium channel subunit alpha-1C (Cavia porcellus, UniProt O35505); experiment: (§1) Inhibition of Cav1.2 calcium current measured using whole cell patch clamp in guinea pig ventricular myocytes; format: functional, cell-based, Heart, Ventricular myocyte; set-up: ca sol conc 1.8 mM, temp 24-26 C
# [2] = target: T1, Voltage-dependent L-type calcium channel subunit alpha-1C; experiment: as §1; format: functional, cell-based, Heart, Ventricular myocyte; set-up: ca sol conc 1.8 mM
# [3] = Inhibition of Cav1.2 calcium current measured using whole cell patch clamp in mouse/rat NG108-15; format: functional, cell-based; set-up: ca sol conc 1.8 mM, temp 20-25 C
# [4] = target: T2, Voltage-dependent L-type calcium channel subunit alpha-1C (Rattus norvegicus, UniProt P22002); experiment: Inhibition of Cav1.2 calcium current measured using whole cell patch clamp in rat atrial myocytes; format: functional, cell-based, Heart, Cardiac Muscle Cell; set-up: ca sol conc 2 mM, temp 22-24 C
# [5] = target: T2, Voltage-dependent L-type calcium channel subunit alpha-1C; experiment: Inhibition of Cav1.2 calcium current measured using whole cell patch clamp in rat myocyte; format: functional, Heart, Cardiac Muscle Cell; set-up: ca sol conc 1.8 mM
# [6] = target: T2, Voltage-dependent L-type calcium channel subunit alpha-1C; experiment: (§2) Inhibition of Cav1.2 calcium current measured using FLIPR in rat aortic A7r5 cells; format: functional, cell-based
# [7] = target: T1, Voltage-dependent L-type calcium channel subunit alpha-1C; experiment: as §1; format: functional, cell-based, Heart, Ventricular myocyte; set-up: ca sol conc 1.8 mM, temp 19 C
# [8] = target: T2, Voltage-dependent L-type calcium channel subunit alpha-1C; experiment: Inhibition of Cav1.2 calcium current measured using whole cell patch clamp in rat Artery myocytes; format: functional, cell-based, Tail; set-up: ca sol conc 5 mM, temp 20-22 C
# [9] = target: T2, Voltage-dependent L-type calcium channel subunit alpha-1C; experiment: (§3) Inhibition of Cav1.2 calcium current measured using whole cell patch clamp in rat ventricular myocytess; format: functional, cell-based, Heart, Ventricular myocyte; set-up: ca sol conc 1.8 mM, temp 20-22 C
# [10] = target: L-type calcium channel alpha 1C/beta 2A (Oryctolagus cuniculus, UniProt P15381+P54288); experiment: Inhibition of Cav1.2 calcium current measured using whole cell patch clamp in human HEK293 cells transfected with rabbit L-type calcium channel subunits; format: functional, cell-based; set-up: ca sol conc 5 mM, temp room
# [11] = target: T1, Voltage-dependent L-type calcium channel subunit alpha-1C; experiment: as §1; format: functional, cell-based, Heart, Ventricular myocyte; set-up: ca sol conc 1.8 mM, temp room
# [12] = target: T3, Voltage-dependent L-type calcium channel subunit alpha-1C (Mus musculus, UniProt Q01815); experiment: (§4) Inhibition of Cav1.2 calcium current measured using whole cell patch clamp in mouse ventricular myocytes; format: functional, cell-based, Heart, Ventricular myocyte; set-up: ca sol conc 2 mM, temp room
# [13] = target: T3, Voltage-dependent L-type calcium channel subunit alpha-1C; experiment: as §4; format: functional, cell-based, Heart, Ventricular myocyte; set-up: ca sol conc 2 mM, temp room; remark: listed apart in the source
# [14] = target: T2, Voltage-dependent L-type calcium channel subunit alpha-1C; experiment: (§5) Inhibition of Cav1.2 calcium current measured using whole cell patch clamp in rat ventricular myocytes; format: functional, cell-based, Heart, Ventricular myocyte; set-up: ca sol conc 1.8 mM, temp 25 C
# [15] = target: T1, Voltage-dependent L-type calcium channel subunit alpha-1C; experiment: as §1; format: functional, cell-based, Heart, Ventricular myocyte; set-up: ca sol conc 0.5 mM
# [16] = target: T1, Voltage-dependent L-type calcium channel subunit alpha-1C; experiment: as §1; format: functional, cell-based, Heart, Ventricular myocyte; set-up: ca sol conc 1.8 mM, temp 25-27 C
# [17] = target: Voltage-dependent L-type calcium channel subunit alpha-1C (Homo sapiens, UniProt Q13936); experiment: Inhibition of Cav1.2 calcium current measured using Voltage-clamp 2-electrode in Xenopous Oocyte transfected with human L-type calcium channel; format: functional, cell-based, Xenopus; set-up: ca sol conc 4 - Ba(OH)2 mM, temp 20-22 C
# [18] = target: T1, Voltage-dependent L-type calcium channel subunit alpha-1C; experiment: as §1; format: functional, cell-based, Heart, Ventricular myocyte; set-up: ca sol conc 1.8 mM; remark: listed apart in the source
# [19] = target: T2, Voltage-dependent L-type calcium channel subunit alpha-1C; experiment: as §2; format: functional, cell-based; remark: listed apart in the source
# [20] = target: T2, Voltage-dependent L-type calcium channel subunit alpha-1C; experiment: as §5; format: functional, cell-based, Heart, Ventricular myocyte; set-up: ca sol conc 2 mM, temp room
# [21] = target: T3, Voltage-dependent L-type calcium channel subunit alpha-1C; experiment: as §4; format: functional, cell-based, Heart, Ventricular myocyte; set-up: ca sol conc 1.8 mM, temp room
# [22] = target: T4, Voltage-dependent L-type calcium channel subunit alpha-1C (Oryctolagus cuniculus, UniProt P15381); experiment: (§6) Inhibition of Cav1.2 calcium current measured using whole cell patch clamp in rabbit ventricular myocytes; format: functional, cell-based, Heart, Ventricular myocyte; set-up: ca sol conc 1.8 mM, temp 23 C
# [23] = target: T4, Voltage-dependent L-type calcium channel subunit alpha-1C; experiment: as §6; format: functional, cell-based, Heart, Ventricular myocyte; set-up: ca sol conc 1.8 mM, temp 23 C; remark: listed apart in the source
# [24] = target: T2, Voltage-dependent L-type calcium channel subunit alpha-1C; experiment: as §5; format: functional, cell-based, Heart, Ventricular myocyte; set-up: ca sol conc 1.8 mM, temp 25-27 C
# [25] = target: T2, Voltage-dependent L-type calcium channel subunit alpha-1C; experiment: as §3; format: functional, cell-based, Heart, Ventricular myocyte; set-up: ca sol conc 2 mM, temp 22-24 C
# [26] = target: T1, Voltage-dependent L-type calcium channel subunit alpha-1C; experiment: as §1; format: functional, cell-based, Heart, Ventricular myocyte; set-up: ca sol conc 1.8 mM, temp 35-36 C
# [27] = target: T1, Voltage-dependent L-type calcium channel subunit alpha-1C; experiment: as §1; format: functional, cell-based, Heart, Ventricular myocyte; set-up: ca sol conc 5 mM, temp 20-22 C
# [28] = target: T1, Voltage-dependent L-type calcium channel subunit alpha-1C; experiment: as §1; format: functional, cell-based, Heart, Ventricular myocyte; set-up: ca sol conc 5 mM, temp 20-22 C; remark: listed apart in the source
# [29] = target: T1, Voltage-dependent L-type calcium channel subunit alpha-1C; experiment: as §1; format: functional, cell-based, Heart, Ventricular myocyte; set-up: ca sol conc 1.8 mM, temp 37 C
# [30] = target: T3, Voltage-dependent L-type calcium channel subunit alpha-1C; experiment: as §4; format: functional, cell-based, Heart; set-up: ca sol conc 2.5 mM, temp 22-24 C; conditions: ventricular myocyte
# T3 sequence (Q01815 whole entry): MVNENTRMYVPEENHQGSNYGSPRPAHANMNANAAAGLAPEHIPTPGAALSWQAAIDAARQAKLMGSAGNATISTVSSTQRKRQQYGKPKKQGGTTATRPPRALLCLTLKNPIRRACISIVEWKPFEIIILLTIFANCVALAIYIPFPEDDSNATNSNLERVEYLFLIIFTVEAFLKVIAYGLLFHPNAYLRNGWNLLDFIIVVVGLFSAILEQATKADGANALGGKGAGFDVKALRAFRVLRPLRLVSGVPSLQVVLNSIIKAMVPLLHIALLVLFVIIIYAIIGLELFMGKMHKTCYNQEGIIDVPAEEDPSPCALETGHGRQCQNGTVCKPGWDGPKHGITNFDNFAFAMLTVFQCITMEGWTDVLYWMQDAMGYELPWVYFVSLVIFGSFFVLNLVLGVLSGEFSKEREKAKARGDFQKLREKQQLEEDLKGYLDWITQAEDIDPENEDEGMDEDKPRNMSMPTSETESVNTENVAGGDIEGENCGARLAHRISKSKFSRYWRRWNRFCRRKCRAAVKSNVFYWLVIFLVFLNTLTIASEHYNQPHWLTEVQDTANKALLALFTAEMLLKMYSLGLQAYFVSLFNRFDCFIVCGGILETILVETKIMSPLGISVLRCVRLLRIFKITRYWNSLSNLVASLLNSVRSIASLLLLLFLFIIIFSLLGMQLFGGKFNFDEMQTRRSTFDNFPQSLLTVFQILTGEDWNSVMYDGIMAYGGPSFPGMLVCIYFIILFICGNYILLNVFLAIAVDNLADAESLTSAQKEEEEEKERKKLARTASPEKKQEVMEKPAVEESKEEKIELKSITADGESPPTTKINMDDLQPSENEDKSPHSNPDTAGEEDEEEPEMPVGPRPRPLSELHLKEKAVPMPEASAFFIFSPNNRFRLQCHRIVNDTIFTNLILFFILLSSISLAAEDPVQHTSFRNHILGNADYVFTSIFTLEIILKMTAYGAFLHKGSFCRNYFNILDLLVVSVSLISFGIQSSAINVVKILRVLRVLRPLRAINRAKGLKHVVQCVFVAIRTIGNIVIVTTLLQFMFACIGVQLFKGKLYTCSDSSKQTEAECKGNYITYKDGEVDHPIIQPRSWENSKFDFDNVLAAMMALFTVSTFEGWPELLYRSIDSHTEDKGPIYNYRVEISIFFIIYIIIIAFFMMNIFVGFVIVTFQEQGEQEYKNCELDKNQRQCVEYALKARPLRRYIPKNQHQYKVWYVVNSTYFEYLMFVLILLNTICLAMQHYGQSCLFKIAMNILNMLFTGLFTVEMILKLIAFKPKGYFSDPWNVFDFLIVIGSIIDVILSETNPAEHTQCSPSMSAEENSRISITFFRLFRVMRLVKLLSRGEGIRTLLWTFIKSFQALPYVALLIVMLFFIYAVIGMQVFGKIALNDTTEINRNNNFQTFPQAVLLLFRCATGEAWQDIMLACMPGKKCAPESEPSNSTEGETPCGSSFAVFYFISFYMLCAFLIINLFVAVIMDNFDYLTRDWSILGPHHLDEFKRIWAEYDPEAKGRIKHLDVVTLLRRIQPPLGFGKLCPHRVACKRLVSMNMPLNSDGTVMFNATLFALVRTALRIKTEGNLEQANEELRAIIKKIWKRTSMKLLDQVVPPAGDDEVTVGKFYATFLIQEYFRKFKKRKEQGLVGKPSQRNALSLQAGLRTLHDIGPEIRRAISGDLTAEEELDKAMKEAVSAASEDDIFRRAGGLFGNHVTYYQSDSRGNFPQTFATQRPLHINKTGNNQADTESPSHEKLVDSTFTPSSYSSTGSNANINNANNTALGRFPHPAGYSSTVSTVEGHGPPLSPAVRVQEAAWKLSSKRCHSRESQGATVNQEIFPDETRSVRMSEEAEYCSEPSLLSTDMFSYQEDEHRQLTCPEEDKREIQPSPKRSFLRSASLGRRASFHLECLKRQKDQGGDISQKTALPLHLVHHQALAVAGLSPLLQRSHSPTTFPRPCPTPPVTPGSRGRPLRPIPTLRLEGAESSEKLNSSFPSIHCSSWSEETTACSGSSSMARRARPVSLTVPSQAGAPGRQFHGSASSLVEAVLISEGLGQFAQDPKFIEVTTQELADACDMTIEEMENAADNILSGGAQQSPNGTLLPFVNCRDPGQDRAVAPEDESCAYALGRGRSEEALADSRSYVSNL
# T2 sequence (P22002 whole entry): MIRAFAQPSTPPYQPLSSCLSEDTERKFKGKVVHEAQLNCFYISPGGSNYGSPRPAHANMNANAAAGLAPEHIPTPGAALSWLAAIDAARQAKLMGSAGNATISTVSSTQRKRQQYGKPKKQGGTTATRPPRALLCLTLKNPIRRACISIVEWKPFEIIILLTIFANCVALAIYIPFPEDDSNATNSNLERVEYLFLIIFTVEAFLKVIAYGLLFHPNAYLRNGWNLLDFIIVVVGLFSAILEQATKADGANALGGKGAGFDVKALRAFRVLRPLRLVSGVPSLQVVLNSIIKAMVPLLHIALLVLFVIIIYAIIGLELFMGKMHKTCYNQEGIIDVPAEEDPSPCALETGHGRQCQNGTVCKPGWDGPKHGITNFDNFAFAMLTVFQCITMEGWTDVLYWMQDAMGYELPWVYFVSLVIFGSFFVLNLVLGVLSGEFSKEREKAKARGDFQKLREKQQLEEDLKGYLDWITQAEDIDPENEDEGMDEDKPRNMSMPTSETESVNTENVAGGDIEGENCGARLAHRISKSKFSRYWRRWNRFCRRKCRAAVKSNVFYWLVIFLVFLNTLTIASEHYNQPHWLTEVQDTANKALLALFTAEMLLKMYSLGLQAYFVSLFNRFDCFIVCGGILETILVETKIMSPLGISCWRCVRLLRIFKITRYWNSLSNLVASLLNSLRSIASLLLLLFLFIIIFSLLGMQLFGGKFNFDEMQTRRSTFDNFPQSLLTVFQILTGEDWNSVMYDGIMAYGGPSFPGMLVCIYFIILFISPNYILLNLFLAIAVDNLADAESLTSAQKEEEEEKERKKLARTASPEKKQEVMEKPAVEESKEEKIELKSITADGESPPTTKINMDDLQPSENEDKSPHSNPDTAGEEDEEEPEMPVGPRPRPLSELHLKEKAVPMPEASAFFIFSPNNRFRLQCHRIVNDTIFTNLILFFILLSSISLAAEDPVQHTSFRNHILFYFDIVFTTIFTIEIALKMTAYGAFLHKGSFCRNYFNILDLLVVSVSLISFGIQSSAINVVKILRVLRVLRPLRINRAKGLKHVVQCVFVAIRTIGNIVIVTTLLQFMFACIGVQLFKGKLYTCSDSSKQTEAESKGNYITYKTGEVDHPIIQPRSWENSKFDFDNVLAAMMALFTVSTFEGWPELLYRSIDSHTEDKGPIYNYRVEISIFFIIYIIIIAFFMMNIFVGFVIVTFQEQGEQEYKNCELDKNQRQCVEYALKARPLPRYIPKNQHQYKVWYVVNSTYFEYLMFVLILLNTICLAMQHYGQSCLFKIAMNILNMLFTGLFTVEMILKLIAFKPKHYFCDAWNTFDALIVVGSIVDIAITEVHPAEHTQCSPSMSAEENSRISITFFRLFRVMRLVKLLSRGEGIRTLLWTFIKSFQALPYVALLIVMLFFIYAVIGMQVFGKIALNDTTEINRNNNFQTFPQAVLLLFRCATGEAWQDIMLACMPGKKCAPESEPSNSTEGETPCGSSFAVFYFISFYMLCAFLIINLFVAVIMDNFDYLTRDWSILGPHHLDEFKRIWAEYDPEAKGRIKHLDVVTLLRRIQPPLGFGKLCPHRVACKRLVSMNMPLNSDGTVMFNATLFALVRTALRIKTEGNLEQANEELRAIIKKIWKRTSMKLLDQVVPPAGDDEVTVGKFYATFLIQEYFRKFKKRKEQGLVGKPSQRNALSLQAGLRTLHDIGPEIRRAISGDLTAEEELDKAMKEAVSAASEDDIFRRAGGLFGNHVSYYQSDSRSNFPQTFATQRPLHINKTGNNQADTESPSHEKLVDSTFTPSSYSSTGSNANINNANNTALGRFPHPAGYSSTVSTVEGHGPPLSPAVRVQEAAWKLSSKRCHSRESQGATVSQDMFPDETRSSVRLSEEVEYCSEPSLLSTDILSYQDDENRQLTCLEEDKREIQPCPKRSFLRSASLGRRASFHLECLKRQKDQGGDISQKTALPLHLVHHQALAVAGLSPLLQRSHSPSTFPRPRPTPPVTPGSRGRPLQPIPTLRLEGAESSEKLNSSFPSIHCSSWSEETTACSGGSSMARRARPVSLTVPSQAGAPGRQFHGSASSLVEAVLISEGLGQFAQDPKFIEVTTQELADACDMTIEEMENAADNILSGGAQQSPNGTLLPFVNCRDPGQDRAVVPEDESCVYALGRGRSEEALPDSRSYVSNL
smiles,measurement,setting,value
CC(=O)N(CCOc1cccc2ccccc12)CCc1ccc(NS(C)(=O)=O)cc1,IC50,[1],0.909 µM
COc1ccc2c(c1)CN(C(=O)CCN1CCC(Cc3ccccc3)CC1)CCS2,IC50,[2],3 µM
Cc1cc(O)c(C(C)C)cc1CN1CCCCC1,IC50,[3],3.6 µM
O=C1CSC(c2ccccc2Cl)c2cc(Cl)ccc2N1 (stereo not given),IC50,[4],0.27 µM
CC(/N=C(\NC#N)Nc1ccc(OC(F)F)cc1)C(C)(C)C (stereo not given),IC50,[5],24.1 µM
CCC(CC)(CNC(=O)C1CCN(CCc2ccccc2)CC1)c1ccc(F)cc1,IC50,[6],4.4 µM
COc1ccc(CCNC(C)COc2c(C)cccc2C)cc1OC (stereo not given),IC50,[7],28.5 µM
O=c1cc(-c2ccccc2O)oc2cc(O)cc(O)c12,IC50,[8],45.1 µM
O=C1C=CC[C@H](C[C@@H](O)CCc2ccc(O)cc2)O1,IC50,[9],3.2 µM
COc1ccc2c(c1)c(C1=C(c3c[nH]c4ccccc34)C(=O)NC1=O)cn2CCCN(C)C,IC50,[10],20 µM
N#Cc1cc2c(OCC(O)CN3CCN(C(c4ccccc4)c4ccccc4)CC3)cccc2[nH]1 (stereo not given),IC50,[11],1.1 µM
COc1ccc(CCN(C)CCCOc2ccc(S(=O)(=O)c3c(C(C)C)c4ccccc4n3C)cc2)cc1OC,IC50,[12],0.033 µM
same,IC50,[13],0.0041 µM
same,IC50,[14],0.024 µM
Cc1cc2c(OCC(O)CN3CCN(C(c4ccccc4)c4ccccc4)CC3)cccc2[nH]1 (stereo not given),IC50,[11],3.6 µM
COc1ccc2c(c1OC)C[N+]1(Cc3ccc(Cl)cc3)CCc3cc4c(cc3C1C2)OCO4 (stereo not given),IC50,[15],11.5 µM
COc1ccc2c(=O)c3c(n(Cc4ccccc4)c2c1)OCC3=O,IC50,[16],4 µM
CCN(CC)CC(=O)N1C[C@@H](c2ccc(Cl)cc2)Sc2ccccc21,IC50,[17],52 µM
COc1cccc(/C=C/CN2CCC(=C3c4ccccc4C=Cc4ccccc43)CC2)c1[N+](=O)[O-],IC50,[2],4.91 µM
same,IC50,[18],0.32 µM
COc1cc(C[C@H](C)[C@@H](C)C(=O)c2ccc(O)c(OC)c2)ccc1O,IC50,[16],7.5 µM
COc1cccc(CCN2CCC(CC(=O)N[C@@H](c3ccc(F)cc3)C(C)C)CC2)c1,IC50,[19],7 µM
same,IC50,[6],2.2 µM
CC(C)[C@@H](NC(=O)CC1CCN(CCc2ccccc2)CC1)c1ccc(F)cc1,IC50,[6],10 µM
CC(C)[C@@H](NC(=O)NC1CCN(CCc2ccccc2)CC1)c1ccc(F)cc1,IC50,[6],5 µM
CC(C)C(CNC(=O)C1CCN(CCc2ccccc2)CC1)c1ccc(F)cc1 (stereo not given),IC50,[6],3.9 µM
COc1ccccc1CCN1CCC(CC(=O)N[C@@H](c2ccc(F)cc2)C(C)C)CC1,IC50,[6],6.8 µM
COCCOc1c(F)cccc1CCN1CCC(CC(=O)N[C@@H](c2ccc(F)cc2)C(C)C)CC1,IC50,[6],2.1 µM
COCCOc1cc(F)ccc1CCN1CCC(CC(=O)N[C@@H](c2ccc(F)cc2)C(C)C)CC1,IC50,[6],1.9 µM
COCCOc1ccc(F)cc1CCN1CCC(CC(=O)N[C@@H](c2ccc(F)cc2)C(C)C)CC1,IC50,[6],3.1 µM
COCCOc1cccc(F)c1CCN1CCC(CC(=O)N[C@@H](c2ccc(F)cc2)C(C)C)CC1,IC50,[6],3.1 µM
COCCOc1ccccc1CCN1CCC(CC(=O)N[C@@H](c2ccc(F)cc2)C(C)C)CC1,IC50,[20],38 µM
CCN1CCC(CC(NC(=O)c2ccc([N+](=O)[O-])cc2)c2ccc(F)cc2)CC1 (stereo not given),IC50,[21],100 µM
CC(C)(C)OC(=O)N1CC2CC(CN(C[C@H](O)COc3ccc(C#N)cc3)C2)C1,IC50,[22],1.3 µM
same,IC50,[23],6 µM
O=C1COc2c1c(=O)c1ccc(Br)cc1n2Cc1ccccc1F,IC50,[24],4.9 µM
CCCCC/C=C\C/C=C\C/C=C/C/C=C\CCCC(=O)NCCO,IC50,[25],0.1 µM
CCNCC#CC(C)(C)OC(=O)C(O)(c1ccccc1)C1CCCCC1 (stereo not given),IC50,[26],27 µM
COc1ccc2c(c1OC)[C@@H]1Cc3cc4c(cc3[C@H](C2)N1C)OCO4,IC50,[24],6.6 µM
CC1=C(C(=O)OC(C)C)[C@@H](c2cccc3nonc23)C([N+](=O)[O-])=C(C)N1,IC50,[27],0.2 µM
same,IC50,[28],0.001 µM
CC1=C(C(=O)OC(C)C)[C@H](c2cccc3nonc23)C([N+](=O)[O-])=C(C)N1 (mixture of isomers),IC50,[27],0.08 µM
O=C1CC(c2ccc(O)cc2)Oc2cc(O)cc(O)c21 (racemic),IC50,[8],100 µM
COC(=O)C1=CCCN(C)C1 [ARECOLINE],IC50,[29],33.7 µM
CC(C)c1c(C(=O)Nc2ccccc2)c(-c2ccccc2)c(-c2ccc(F)cc2)n1CC[C@@H](O)C[C@@H](O)CC(=O)O [ATORVASTATIN],IC50,[30],inactive at 10nM. Original reference for datapoint is pubmed_id: 17466325

# — ChEMBL document CHEMBL3638030, “IC50 data for the L-type calcium channel extracted from a set of literature articles”
